The values that follow come from PubChem BioAssay (NCI).

Molecules are shown by their SMILES.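 Five compound concentrations were applied to cells in 96-well plates for 48 hours; endpoints were derived by simple linear interpolation of the resulting dose-response curve. GI50 marks 50% less growth. TGI denotes the concentration required for complete inhibition of growth.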

Among the test systems are DU-145 prostate; OVCAR-4 ovarian; PC-3 prostate; MALME-3M melanoma; SF-268 CNS; NCI-H460 lung; HCC-2998 colon; A498 renal; SR leukemia; SF-295 CNS.
Common to all, as to assay: NCI anticancer screen, dose series, 48 h

For the compound `Oc1c(CN2CCOCC2)cc(COCc2ccccc2)c2cccnc12`, the GI50 in the experiment on DU-145 prostate was 4.73 µM; in the experiment on OVCAR-4 ovarian, 1970 nM; in the experiment with PC-3 prostate, 7.34 µM; in the experiment on MALME-3M melanoma it was 2840 nM; in the experiment on SF-268 CNS it was 1.95 µM; in the experiment with NCI-H460 lung, 756 nM. The GI50 with HCC-2998 colon is 3.28 µM; with A498 renal, 16.5 µM; in the experiment on SR leukemia, 681 nM; with SF-295 CNS, 3.68 µM. The TGI was over 100 µM in the experiment with DU-145 prostate; over 100 µM in the experiment on OVCAR-4 ovarian; over 100 µM in the experiment on PC-3 prostate; over 100 µM in the experiment on MALME-3M melanoma; over 100 µM in the experiment on SF-268 CNS; 53.3 µM with NCI-H460 lung. Moreover, the TGI in the experiment with HCC-2998 colon was over 100 µM; in the experiment on A498 renal, over 100 µM; in the experiment with SR leukemia it was 17.9 µM; in the experiment with SF-295 CNS, 30.6 µM.
Turning to `CCOc1cc(C(C)(C)C)ccc1C1=N[C@@](C)(c2ccc(Cl)cc2)[C@@](C)(c2ccc(Cl)cc2)N1C(=O)N1CCN(CCS(C)(=O)=O)CC1`, the GI50 with DU-145 prostate was 4.85 µM; with OVCAR-4 ovarian it was 2680 nM; in the experiment with PC-3 prostate, 2.01 µM; with MALME-3M melanoma it was 535 nM; in the experiment on SF-268 CNS, 3.82 µM; in the experiment with NCI-H460 lung, 1100 nM. Besides, the GI50 in the experiment on HCC-2998 colon was 2.28 µM; in the experiment on A498 renal, 0.655 µM; in the experiment with SR leukemia, 198 nM; in the experiment on SF-295 CNS, 3.15 µM. Also, the TGI in the experiment on DU-145 prostate came out at 16.1 µM; with OVCAR-4 ovarian, 38.3 µM; with PC-3 prostate, 6.25 µM; in the experiment with MALME-3M melanoma it was 6.07 µM; in the experiment with SF-268 CNS, 17.4 µM; in the experiment with NCI-H460 lung, 5.4 µM. Also, the TGI turned out to be 4.98 µM with HCC-2998 colon, 5.27 µM in the experiment with A498 renal, 5.26 µM with SR leukemia and 10.5 µM in the experiment on SF-295 CNS.
Take `O=C(Nc1cc(-c2cccnc2)nc(NCCCN2CCOCC2)n1)c1cc(Br)cc(C(F)(F)F)c1`: the GI50 with DU-145 prostate was 6.7 µM; with OVCAR-4 ovarian, 3260 nM; in the experiment with PC-3 prostate, 4.03 µM; in the experiment with MALME-3M melanoma, 1760 nM; in the experiment with SF-268 CNS, 2.63 µM; with NCI-H460 lung, 2970 nM. Besides, the GI50 was 1.77 µM in the experiment on HCC-2998 colon, 3.43 µM in the experiment with A498 renal, 2600 nM in the experiment on SR leukemia and 1.94 µM with SF-295 CNS. Further, the TGI with DU-145 prostate turned out to be 19.1 µM; with OVCAR-4 ovarian, 14.5 µM; in the experiment with PC-3 prostate, 15.7 µM; with MALME-3M melanoma it was 3.58 µM; in the experiment with SF-268 CNS it was 10.4 µM; in the experiment on NCI-H460 lung, 8.94 µM. The TGI in the experiment on HCC-2998 colon was determined as 3.49 µM; in the experiment with A498 renal, 13.4 µM; in the experiment with SR leukemia, 41.7 µM; in the experiment on SF-295 CNS it was 3.93 µM.
On to `COC(=O)[C@]12CC[C@@H](C)[C@H](C)[C@@H]1C1=CC[C@@H]3[C@@]4(C)CC(=O)[C@H](OC(=O)c5ccco5)[C@@]5(C)COC(=C45)C[C@@]3(C)[C@]1(C)CC2`, for which the GI50 in the experiment with DU-145 prostate was 9.04 µM; in the experiment with OVCAR-4 ovarian, 2120 nM; in the experiment on PC-3 prostate it was 0.592 µM; with MALME-3M melanoma, 556 nM; in the experiment on SF-268 CNS, 4.86 µM; in the experiment with NCI-H460 lung, 568 nM. Further, the GI50 in the experiment with A498 renal is 13.3 µM; in the experiment on SR leukemia, 371 nM; with SF-295 CNS it was 28.3 µM. Also, the TGI in the experiment on DU-145 prostate, with OVCAR-4 ovarian, in the experiment on PC-3 prostate, with MALME-3M melanoma, with SF-268 CNS and in the experiment with NCI-H460 lung was over 100 µM in each case. The TGI in the experiment with HCC-2998 colon, in the experiment with A498 renal, in the experiment on SR leukemia and in the experiment on SF-295 CNS was over 100 µM in each case.
As for `C[N+](C)([O-])CCCNc1ccnc2cccc([N+](=O)[O-])c12`, the TGI is 44.1 µM with DU-145 prostate; 55.3 µM with OVCAR-4 ovarian; over 100 µM in the experiment with PC-3 prostate; 87.6 µM with MALME-3M melanoma; 97.5 µM in the experiment with SF-268 CNS; 31.3 µM in the experiment with NCI-H460 lung. The TGI in the experiment with HCC-2998 colon, with A498 renal, in the experiment on SR leukemia and in the experiment on SF-295 CNS was over 100 µM each time.
On to `COc1cc(/C=N\O)nc(-c2ccccn2)c1`, for which the TGI in the experiment with DU-145 prostate, in the experiment with OVCAR-4 ovarian, in the experiment on PC-3 prostate, in the experiment with MALME-3M melanoma, in the experiment on SF-268 CNS and in the experiment with NCI-H460 lung was over 100 µM each time. Moreover, the TGI with HCC-2998 colon is over 100 µM; with A498 renal, 9.22 µM; in the experiment with SR leukemia it was 0.453 µM; in the experiment with SF-295 CNS, over 100 µM.
On to `CC[C@H](NC(=O)[C@H](CS(=O)(=O)CC1CC1)N[C@@H](c1ccc(F)cc1)C(F)(F)F)C(=O)C(=O)NC1CC1`, for which the GI50 in the experiment on DU-145 prostate is over 100 µM; with OVCAR-4 ovarian, 82900 nM; in the experiment on PC-3 prostate, over 100 µM; in the experiment on MALME-3M melanoma, over 100000 nM; with SF-268 CNS, over 100 µM; in the experiment on NCI-H460 lung it was over 100000 nM. Also, the GI50 in the experiment on HCC-2998 colon is over 100 µM; in the experiment on A498 renal, over 100 µM; in the experiment with SR leukemia, 98400 nM; in the experiment on SF-295 CNS it was over 100 µM. Besides, the TGI in the experiment on DU-145 prostate, in the experiment on OVCAR-4 ovarian, in the experiment on PC-3 prostate, in the experiment on MALME-3M melanoma, in the experiment with SF-268 CNS and in the experiment on NCI-H460 lung was over 100 µM each time. Besides, the TGI in the experiment on HCC-2998 colon, with A498 renal, in the experiment on SR leukemia and with SF-295 CNS was over 100 µM each time.
`COc1ccc2c(c1)CC[C@@H]1[C@@H]2CC[C@]2(C)C=C(/C=C/C(=O)c3ccccc3)C[C@@H]12`: the GI50 in the experiment with DU-145 prostate is 14.6 µM; in the experiment with OVCAR-4 ovarian, 16200 nM; in the experiment with PC-3 prostate it was 15.4 µM; in the experiment with MALME-3M melanoma, 14000 nM; in the experiment on SF-268 CNS it was 18.2 µM; in the experiment on NCI-H460 lung, 17200 nM. The GI50 in the experiment with HCC-2998 colon is 16.2 µM; in the experiment on A498 renal, 13.3 µM; in the experiment on SR leukemia, 16600 nM; in the experiment on SF-295 CNS it was 17.5 µM. Besides, the TGI in the experiment on DU-145 prostate stood at 28.4 µM; in the experiment on OVCAR-4 ovarian, 31.6 µM; with PC-3 prostate it was 30.5 µM; in the experiment with MALME-3M melanoma, 30.1 µM; in the experiment on SF-268 CNS, 36.6 µM; in the experiment with NCI-H460 lung it was 35.4 µM. The TGI was found to be 31.2 µM in the experiment on HCC-2998 colon, 26.3 µM in the experiment with A498 renal, 47.4 µM in the experiment with SR leukemia and 34 µM with SF-295 CNS.
